From patent publication US9622495B2, “Methods to decontaminate cereal grains with chlorine dioxide” (Diversey, Inc., priority 2011, dated 2017)
Values joined by “and” are separate entries in the source; they are usually repeats but may differ in a detail not shown here. Equal entries are not always repeated.

Tests used:
[1] = tested on: Fusarium mycotoxins (deoxynivalenol, zearalenon) and deoxynivalenol-3-glucoside; experiment: Mycotoxin content of barley by LC-MS/MS
Description: The barley was also analyzed for representative mycotoxin content as follows. The high-performance liquid chromatography with mass detection (LC-MS/MS) was used for the determination of the selected Fusarium mycotoxins (deoxynivalenol, zearalenon) and deoxynivalenol-3-glucoside in brewing raw materials. After extraction, the homogenized samples were filtered and purified on the SPE column or immunoaffinity column. Subsequently, they were concentrated using a vacuum evaporator, transferred to aqueous methanol and analyzed with the LC-MS/MS.

Fusarium [2] = experiment: Industrial-scale spraying of barley with aqueous chlorine dioxide (20 ppm) during germination, Fusarium counts; format: cell-based; details: for Log N Fusarium counts: sprayed with aqueous ClO2 (20 ppm) during germination, samples 11B, 12B
Description: Comparison tests were conducted with two batches of barley at the same industrial malting site of Example 5, to determine the effect of ClO2 upon Fusarium counts where the barley is sprayed with aqueous ClO2 (20 ppm) during germination. Both batches were treated with tap water during the steeping stage. Batches 11A and 12A were also sprayed with tap water during germination, whereas batches 11B and 12B were sprayed with aqueous ClO2 (20 ppm) during germination. Each batch of barley weighed approximately 56 metric tons when dry and absorbed approximately 40-50% water by weight during the steeping and germination steps. For example, the barley typically absorbed about 41-42% water during steeping. During germination water content in the barley further increased to about 45-46%. During germination, the steeped batch of barley was sprayed with about 8.8 m^3 aqueous chlorine dioxide (20 ppm) solution (i.e., about 0.15 m^3 aqueous chlorine dioxide solution per metric ton of dry grain).

Fusarium [3] = experiment: Fusarium counts on barley, chlorine dioxide in second steeping, pilot steeping chamber (Example 2); format: cell-based
Description: (§1) Test protocol. Harvested barley from a high load Fusarium batch was provided by Czech Malt and Brew Institute. A starting probe (parallel) was taken to determine initial cell load on barley with Fusarium. Barley (1 g) was whirled in Ringer-solution (10 ml) to detach cells. After thorough whirling ten-fold dilutions steps in sterile Ringer-solution were prepared. 1 ml sample in parallel from dilution steps 10^−4, 10^−5 and 10^−6 were poured with sterile potato agar medium. Chlorine dioxide treated barley was prior to dilution series once washed with Ringer-solution to remove residual Chlorine dioxide. Plates were transferred into a temperature-controlled (30° C.) incubation box and grown for 3-5 days until colony formation was observed. Colonies were counted and calculated to CFU/g. Boxes with barley were placed into a steeping/germination box. The chamber was filled with town tap water for the first steeping and to remove dust and dirt. With help of Dulcotest DT1 photometer (Prominent), the free chlorine in tap water was determined to be 0.17 ppm. The first steeping was performed for 5 hours at about 14.5° C. During this time the water content in exposed barley increased up to 31.8%. After the first steeping residual water was drained. A second (parallel) barley sample was taken to determine the Fusarium load. The steeped barley was then exposed to air until next morning (approximately 16 hours), and a third (parallel) barley sample was taken to determine Fusarium load.
(§2) The second steeping was performed using an aqueous solution of chlorine dioxide. The aqueous solution was made of Diversey Bi-Spore as described in Example 1. The chlorine dioxide steeping solution was prepared from stock by diluting with town tap water. The chlorine dioxide concentration of the steeping solution was determined to be 12 ppm.
(§3) Four boxes with 0.5 kg barley each were placed into a plastic container, which then was filled with 11 L of above mentioned chlorine dioxide steeping solution. The plastic container was transferred into the steeping/germination chamber and left for another 4 hour steeping period. The chlorine dioxide concentration was periodically monitored using Dr. Lange test-kits (LCK 310/343) and DR 2800 device. (Parallel) Barley samples were taken to determine residual cell load of Fusarium after the chlorine dioxide steeping.
After second steeping with chlorine dioxide, the boxes were exposed to air in the closed chamber for another 20 hour period. The water level was determined to 38.1% and then adjusted to final 45.5% after a third steeping with tap water for a period of 2.5 hours. A final parallel barley sample was taken to determine residual cell load with Fusarium prior to germination. Treated barley then was further processed according to a quality parameter protocol of the Malting Institute.

Fusarium [4] = experiment: as above; format: cell-based; remark: listed apart in the source
[5] = Chlorine dioxide concentration in the steeping solution during steeping; format: physicochemical; details: for ClO2 concentration in the steeping solution: Example 2, second steeping
Description: as §2, §3
(§4) A comparison test with a batch of barley treated with chlorine dioxide in second steeping versus a control using tap water only was carried out following the procedure described in Example 2. The chlorine dioxide in the second steeping solution was determined as initial 11 ppm and dropped to 8 ppm at the end of steeping (4 hour in total, data not shown). The effect on reduction of Fusarium counts were determined.

Fusarium [6] = experiment: Industrial-scale treatment of barley with chlorine dioxide (about 10 ppm) in second steeping, Fusarium counts; format: cell-based; details: in words
Description: Two independent comparison tests with batches of barley treated with chlorine dioxide in a second steeping, versus control steepings using tap water only, were carried out at industrial scale at an industrial malting site following the procedure described in Example 2. Each batch included about 56 m^3 of barley, the ratio of aqueous chlorine dioxide to barley was about 1:1, and chlorine dioxide (about 10 ppm) was added during second steeping. There was no further dosage of ClO2 during the subsequent germination phase. The effect on reduction of Fusarium counts at industrial-scale were determined at distinct phases: after a first air break, after the second steeping, and during the green malt stage (after barley germination).

Fusarium [7] = experiment: Fusarium counts on barley, chlorine dioxide in second steeping versus tap water blank (Example 3); format: cell-based
Description: as §1, §4

Fusarium [8] = experiment: Treatment of barley artificially contaminated with Fusarium with chlorine dioxide solutions (test tube, plate count); format: cell-based
Description: The performance of chlorine dioxide was investigated to reduce initial Fusarium load on barley. Prior to treatment with chlorine dioxide, barley samples were artificially contaminated with cells of Fusarium by spraying and drying.
Methods. Chlorine dioxide solutions were generated using Diversey's ClearKlens Bi-Spore Set (Base VH26 and Activator VH 26). Fresh stock solutions were prepared following product use instructions. Concentrations of chlorine dioxide in stock and use solutions were determined with a Dr. Lange test-kit (LCK 310/343) and photometric DR 2800 device. Chlorine dioxide use solutions were prepared diluting the Bi-Spore stock solution with aid of CEN hard water diluent (300 mg/kg CaCO3). The neutralizing solution was based on sodium thiosulfate (5 g/L in ¼ strength Ringer solution). Experiments were carried out at ambient temperature and no soil on the basis of EN 1276. Chlorine dioxide use solutions for testing were determined to be 1 ppm and 10 ppm.
Test runs were conducted as follows. In a test tube, chlorine dioxide solution (10 ml) was added to barley (1 g) and the start time of the experiment was recorded. Barley and chlorine dioxide were mixed by vortexing for 10 seconds and then allowed to react for one hour. After treating the barley with chlorine dioxide solution for one hour, the solution was decanted. Shortly thereafter, a subsequent treatment for either 60 or 300 min with a fresh solution containing either 1 ppm ClO2 or 10 ppm ClO2 was performed. After completion of the second treatment, a portion of the mixture (1 mL) was pipetted into 9 ml of neutralizer and mixed. After 5 minutes reaction time, 1 mL of the neutralized solution was added to 9 mL Ringer diluent. A dilution series was prepared up to 1:10,000. From each dilution step, 1 mL (in duplicate) was plated on potato dextrose agar. Plates were incubated at 30° C. for 62 hours. Grown colonies on plates were counted and expressed at CFU per gram barley. A control experiment using Ringer solution instead of chlorine dioxide was performed following the same procedure.

[9] = Bojos barley after steeping with chlorine dioxide
[10] = ClO2-treated batch, after third steeping with tap water
[11] = ClO2-treated batch, after third steeping with tap water, second sample
[12] = after second steeping with ClO2 (4 hours), 12 ppm
[13] = after second steeping with ClO2 (4 hours), 12 ppm, second sample
[14] = second steeping step with chlorine dioxide
[15] = after 2nd steeping with ClO2 (4 hours)
[16] = 10 ppm + 1 ppm ClO2, contact time 60 min + 60 min
[17] = 10 ppm + 1 ppm ClO2, contact time 60 min + 300 min
[18] = 10 ppm + 10 ppm (2nd steep) ClO2, contact time 60 min + 60 min
[19] = 10 ppm + 10 ppm (2nd steep) ClO2, contact time 60 min + 300 min

Q: What does the source list for `[O][Cl+][O-]` [ClO2, chlorine dioxide]?
A: DON concentration on barley [1, 9]: 450.4 µg/kg; DON_3_Glc concentration on barley [1, 9]: 751 µg/kg; ZON concentration on barley [1, 9]: 12.1 µg/kg; DON ([1]; Bojos barley steeped with chlorine dioxide, Table 7): 450.4 µg/kg; Mycotoxin concentration of DON and DON_3_Glc on barley compared to initial load of untreated barley or barley steeped with water only ([1]; in words): significantly lower; ZON level compared to tap water only ([1]; in words): significantly less; Level of ZON after steeping compared to initial load ([1]; in words, independently of whether water or chlorine dioxide was used): increased; Fusarium counts on barley compared to control batch sprayed with tap water (Fusarium [2]; industrial scale, sprayed during germination, in words): significantly lower; Log N Fusarium counts (Fusarium [2]; Day 1): 5.9 and 5.8; Log N Fusarium counts (Fusarium [2]; Day 2): 5.2; Log N Fusarium counts (Fusarium [2]; Day 3): 5.2; Log N Fusarium counts (Fusarium [2]; Day 4): 4.3; Log N Fusarium counts (Fusarium [2]; Day 5): 4.1 and 4.0; Fusarium counts, Mean value (CFU/g) (Fusarium [3]; [10]): 2.47 × 10^5 CFU/g; Fusarium counts, Sample 1 (CFU/g) (Fusarium [3]; [10]): 2.47 × 10^5 CFU/g; Fusarium counts, Sample 1 (CFU/g) (Fusarium [3]; [11]): 2.47 × 10^5 CFU/g; Fusarium counts, Mean value (CFU/g) (Fusarium [3]; [12]): 5.16 × 10^4 CFU/g; Fusarium counts, Sample 1 (CFU/g) (Fusarium [3]; [12]): 5.23 × 10^4 CFU/g; Fusarium counts, Sample 1 (CFU/g) (Fusarium [3]; [13]): 5.09 × 10^4 CFU/g; Fusarium in malted barley produced from the treated batch (Fusarium [3]; malted barley, data not shown): free from Fusarium; Reduction of Fusarium numbers on barley (%) (Fusarium [3]; [14]): 94.15%; Reduction of Fusarium numbers on barley (log) (Fusarium [3]; [14]): 1.24 log; Fusarium counts, Mean value (CFU/grain) (Fusarium [4]; [10]): 1.98 × 10^4 CFU/grain; Fusarium counts, Sample 1 (CFU/grain) (Fusarium [4]; [10]): 1.90 × 10^4 CFU/grain; Fusarium counts, Sample 1 (CFU/grain) (Fusarium [4]; [11]): 2.06 × 10^4 CFU/grain; Fusarium counts, Mean value (CFU/grain) (Fusarium [4]; [12]): 3.69 × 10^3 CFU/grain; Fusarium counts, Sample 1 (CFU/grain) (Fusarium [4]; [12]): 3.74 × 10^3 CFU/grain; Fusarium counts, Sample 1 (CFU/grain) (Fusarium [4]; [13]): 3.64 × 10^3 CFU/grain; ClO2 concentration in the steeping solution ([5]; time 0 min): 12.2 mg/L; ClO2 concentration in the steeping solution ([5]; time 80 min): 11.8 mg/L; ClO2 concentration in the steeping solution ([5]; time 140 min): 7.4 mg/L; ClO2 concentration in the steeping solution ([5]; time 190 min): 9.5 mg/L; ClO2 concentration in the steeping solution ([5]; time 240 min): 6.4 mg/L; Chlorine dioxide in the second steeping solution, end of steeping ([5]; Example 3, end of steeping (4 hour in total)): 8 ppm; Chlorine dioxide in the second steeping solution, initial ([5]; Example 3, start of steeping): 11 ppm; Fusarium counts compared to control batches steeped with tap water (Fusarium [6]): significantly lower; % reduction vs. untreated control (Fusarium [7]; after 2nd aeration (20 hours)): 93.09%; Fusarium counts, treated with ClO2, mean value (CFU/g) (Fusarium [7]; after 2nd aeration (20 hours)): 4.41 × 10^3 CFU/g; Fusarium counts, treated with ClO2, sample 1 (CFU/g) (Fusarium [7]; after 2nd aeration (20 hours)): 4.69 × 10^3 CFU/g; Fusarium counts, treated with ClO2, sample 2 (CFU/g) (Fusarium [7]; after 2nd aeration (20 hours)): 4.13 × 10^3 CFU/g; log reduction vs. untreated control (Fusarium [7]; after 2nd aeration (20 hours)): 1.17; % reduction vs. untreated control (Fusarium [7]; [15]): 93.44%; Fusarium counts, treated with ClO2, mean value (CFU/g) (Fusarium [7]; [15]): 4.56 × 10^3 CFU/g; Fusarium counts, treated with ClO2, sample 1 (CFU/g) (Fusarium [7]; [15]): 4.37 × 10^3 CFU/g; Fusarium counts, treated with ClO2, sample 2 (CFU/g) (Fusarium [7]; [15]): 4.75 × 10^3 CFU/g; log reduction vs. untreated control (Fusarium [7]; [15]): 1.18; % reduction vs. untreated control (Fusarium [7]; after 3rd steeping): 92.59%; Fusarium counts, treated with ClO2, mean value (CFU/g) (Fusarium [7]; after 3rd steeping): 3.14 × 10^3 CFU/g; Fusarium counts, treated with ClO2, sample 1 (CFU/g) (Fusarium [7]; after 3rd steeping): 3.12 × 10^3 CFU/g; Fusarium counts, treated with ClO2, sample 2 (CFU/g) (Fusarium [7]; after 3rd steeping): 3.15 × 10^3 CFU/g; log reduction vs. untreated control (Fusarium [7]; after 3rd steeping): 1.13; Fusarium counts compared to the control steeped with tap water only (Fusarium [7]; chlorine dioxide in second steeping, in words): significantly lower; CFU/g after treatment (Fusarium [8]; [16]): 3.3 × 10^6 CFU/g; R (log batch control − log batch ClO2), reduction in viability (Fusarium [8]; [16]): 1.06; CFU/g after treatment (Fusarium [8]; [17]): 1.3 × 10^7 CFU/g; R (log batch control − log batch ClO2), reduction in viability (Fusarium [8]; [17]): 0.47; CFU/g after treatment (Fusarium [8]; [18]): 1.1 × 10^4 CFU/g; R (log batch control − log batch ClO2), reduction in viability (Fusarium [8]; [18]): 3.58; CFU/g after treatment (Fusarium [8]; [19]): 5 × 10^3 CFU/g; R (log batch control − log batch ClO2), reduction in viability (Fusarium [8]; [19]): 3.88; Fusarium counts on barley compared to a control without chlorine dioxide (Fusarium [8]; Example 1, in words): clear reduction
